Measured values reported in patent publication US10470987B2, “Process for stimulating hyaluronic acid synthesis” (TOMCAT INTERNATIONAL LIMITED, priority 2015, dated 2019).

Test system: has-2 expression
Experiment: has-2 expression in human skin fibroblasts by real time quantitative PCR, 6 hours incubation
Assay type: cell-based
Conditions: 2 μM, vs untreated
Description: Human skin fibroblast cells are spread in DMEM medium containing 10% of fetal bovine serum (FBS) and antibiotics (penicillin/streptomycin) and incubated until a 90% confluence is reached. The medium is removed and replaced by fresh medium comprising resveratrol (RSV) or resveratrol oligomers (OR) respectively. Table 1 below indicates the different conditions tested and concentrations used. [table] Human skin fibroblast cells are incubated for 6 hours at 37° C. under 5% CO2. The ARN extraction is made by using the ARN Omega extraction kit. 1 μg of ARN is used and retranscribed into complementary DNA using the ADNc Bio-Rad iScript™ synthesis kit followed by a real time quantitative PCR quantification. The PCR reactions have been carried out using Fast-Start™ DNA Master SYBR Green I real-time PCR kit (Roche Molecular Biochemicals). Each PCR has been carried out in a final volume of 20 μl containing 10 μl of SYBR Green mix 2× (Fast start DNA master SYBR green+Taq DNA polymerase), 2 μl of 10 μM primer mixture (finally 1 μM) and 8 μl of ADNc solution (50 ng). The primers used are described in table 2 below. [table]

## Oc1ccc(C=Cc2cc(O)cc(O)c2)cc1 [resveratrol, 3,5,4′-trihydroxystilbene]
  increase of has-2 expression by fibroblasts: 18%
  induction of has-2 expression by fibroblasts, factor: 1.18
